Test results taken from patent US5580869A, “1N substituted pyrazino[2,3-c]-1,2,6-thiadiazine 2,2-dioxides” (Prodesfarma, S.A., priority 1992, dated 1996).
Read-outs that look alike come from different tables or passages of the source.

Columns and labels:
[1] = Mortality rate in the mouse after a single oral dose of 1600 mg/kg; conditions: in vivo, single oral dose 1600 mg/kg
Experimental: Likewise, to complete the superficial pharmacological profile, a check was made of the mortality rate in the mouse after oral administration of a single dose of 1600 mg/kg of each of the synthesized compounds (See Table 1).

rats = test: Diuretic and saluretic activity (urine volume and electrolyte excretion over 6 h), technique of Lipschits et al.; assay type: in vivo; conditions: rat; for response vs control in vivo at 20 mg/kg: 20 mg/kg po; for response vs control in vivo at 25 mg/kg: 25 mg/kg po; for response vs control in vivo at 10 mg/kg: 10 mg/kg po; for response vs control in vivo at 40 mg/kg: 40 mg/kg po
Experimental: The synthesized compounds were, therefore, subjected a pharmacological screening to evaluate a possible diuretic and salt excreting activity. Thus, an acute dose of each of the products of synthesis (20 or 25 mg/kg) was administered to rats and the amount of urine and the excretion of electrolytes was measured, following the technique described by Lipschits et al., with certain modifications (J. Pharmacol. Exp.Ther. 1943-79; 97-110).
The volume (ml/kg/6 h), the pH and the excretion of sodium, potassium and chloride ions (mEq/kg/6 h) were determined on the urine quantitatively collected over 6 hours, using triamterene and hydrochlorothiazide as reference diuretics.

[2] = test system: isolated guinea pig trachea; test: In vitro trachea relaxing activity (spontaneous tone in isolated trachea, method of Luduena); assay type: cell-based; conditions: Cavia porcellus, relative to maximum relaxation by noradrenaline 0.3 mcg/ml; for activity at 30 µg/mL: 30 mcg/ml
Experimental: The platelet antiaggregation activity was determined in vitro using platelet rich rabbit plasma and arachidonic acid (50 mcg/ml) as aggregation inducing agent. The results are given for tracheal relaxation as percentage inhibition of the tracheal tone relative to the maximum relaxation induced by noradrenaline (0.3 mcg/ml) and for the platelet aggregation as a percentage of the maximum effect observed with the proaggregation agent.

[3] = (N) = not statistically significant vs control, read-out: Cl excretion, treated group/control group ratio
[4] = (N) = not statistically significant vs control, read-out: K excretion, treated group/control group ratio
[5] = (N) = not statistically significant vs control, read-out: Na excretion, treated group/control group ratio
[6] = (N) = not statistically significant vs control, read-out: Na/K
[7] = (N) = not statistically significant vs control, read-out: Volume urine, treated group/control group ratio
[8] = read-out: Cl excretion, treated group/control group ratio
[9] = read-out: K excretion, treated group/control group ratio
[10] = read-out: Na excretion, treated group/control group ratio
[11] = read-out: Volume urine, treated group/control group ratio

Row | Compound | mortality [1] [%] | response vs control in vivo at 20 mg/kg (rats; [3]) [%] | response vs control in vivo at 20 mg/kg (rats; [4]) [%] | response vs control in vivo at 20 mg/kg (rats; [5]) [%] | response vs control in vivo at 20 mg/kg (rats; [6]) [%] | response vs control in vivo at 20 mg/kg (rats; [7]) [%] | response vs control in vivo at 25 mg/kg (rats; [3]) [%] | response vs control in vivo at 25 mg/kg (rats; [4]) [%] | response vs control in vivo at 25 mg/kg (rats; [5]) [%] | response vs control in vivo at 25 mg/kg (rats; [7]) [%] | activity at 30 µg/mL [2] [%] | other results
1 | CCCN1c2nc(CC)c(C)nc2C(N)=NS1(=O)=O [1-ethyl-6-methyl-1-propyl, 4-amino-7-ethyl-6-methyl-1-propylpyrazino[2,3-c]-1,2,6-thiadiazine 2,2-dioxide] | 40 | 530 | 172 | 502 | 292 | 154 | – | – | – | – | – | –
2 | Nc1cc(-c2ccncc2)c[nH]c1=O [Amrinone, reference compound] | – | – | – | – | – | – | – | – | – | – | – | activity at 3 µg/mL ([2]; 3 mcg/ml): 65%
3 | Nc1nc(N)c2nc(-c3ccccc3)c(N)nc2n1 [Triamterene, reference compound] | – | 237 | 34 | 579 | – | 145 | 260 | 36 | 596 | 165 | – | –
4 | Cc1nc2c(nc1C)N(CCO)S(=O)(=O)N=C2N [1-(2-hydroxyethyl)-6,7-dimethyl, 4-amino-1-(2-hydroxyethyl)-6,7-dimethylpyrazino[2,3-c]-1,2,6-thiadiazine 2,2-dioxide] | 0 | – | – | – | – | – | 141 | 189 | 203 | 106 | – | response vs control in vivo at 25 mg/kg (rats; read-out: Na/K): 107%
5 | NS(=O)(=O)c1cc2c(cc1Cl)NCNS2(=O)=O [Hydrochlorothiazide, reference compound] | – | – | – | – | – | – | – | – | – | – | – | response vs control in vivo at 10 mg/kg (rats; [8]): 577%; response vs control in vivo at 10 mg/kg (rats; [9]): 217%; response vs control in vivo at 10 mg/kg (rats; [10]): 668%; response vs control in vivo at 10 mg/kg (rats; read-out: Na/K): 308%; response vs control in vivo at 10 mg/kg (rats; [11]): 166%; response vs control in vivo at 40 mg/kg (rats; [8]): 626%; response vs control in vivo at 40 mg/kg (rats; [9]): 265%; response vs control in vivo at 40 mg/kg (rats; [10]): 773%; response vs control in vivo at 40 mg/kg (rats; read-out: Na/K): 292%; response vs control in vivo at 40 mg/kg (rats; [11]): 179%
6 | CCc1nc2c(nc1C)C(N)=NS(=O)(=O)N2CC [1,7-diethyl-6-methyl, 4-amino-1,7-diethyl-6-methylpyrazino[2,3-c]-1,2,6-thiadiazine 2,2-dioxide] | 37.5 | – | – | – | – | – | 787 | 179 | 823 | 197 | – | response vs control in vivo at 25 mg/kg (rats; read-out: Na/K): 460%
7 | CCc1nc2c(nc1C)N(CC)S(=O)(=O)N=C2N [1,6-diethyl-7-methyl, 4-amino-1,6-diethyl-7-methylpyrazino[2,3-c]-1,2,6-thiadiazine 2,2-dioxide] | – | 89 | 91 | 56 | 62 | 104 | – | – | – | – | 95 | –
8 | CCN1c2nc(C(F)(F)F)c(C(F)(F)F)nc2C(N)=NS1(=O)=O [1-ethyl-6,7-bis(trifluoromethyl), 4-amino-1-ethyl-6,7-bis(trifluoromethyl)pyrazino[2,3-c]-1,2,6-thiadiazine 2,2-dioxide] | 100 | – | – | – | – | – | 112 | 99 | 129 | 128 | – | response vs control in vivo at 25 mg/kg (rats; read-out: Na/K): 130%
9 | CCCc1nc2c(nc1C)C(N)=NS(=O)(=O)N2CC [1-ethyl-6-methyl-7-propyl, 4-amino-1-ethyl-6-methyl-7-propylpyrazino[2,3-c]-1,2,6-thiadiazine 2,2-dioxide] | 50 | 176 | 123 | 156 | 127 | 109 | – | – | – | – | – | –
10 | CCCN1c2nc(C)c(C)nc2C(N)=NS1(=O)=O [6,7-dimethyl-1-propyl, 4-amino-6,7-dimethyl-1-propylpyrazino[2,3-c]-1,2,6-thiadiazine 2,2-dioxide] | 60 | 593 | 197 | 609 | 309 | 175 | – | – | – | – | – | –
11 | CCN1c2nc(C)c(Br)nc2C(N)=NS1(=O)=O [6-bromo-1-ethyl-7-methyl, 4-amino-6-bromo-1-ethyl-7-methylpyrazino[2,3-c]-1,2,6-thiadiazine 2,2-dioxide] | – | – | – | – | – | – | – | – | – | – | 88 | –
12 | CCc1nc2c(nc1C)C(N)=NS(=O)(=O)N2C [7-ethyl-1,6-dimethyl, 4-amino-7-ethyl-1,6-dimethylpyrazino[2,3-c]-1,2,6-thiadiazine 2,2-dioxide] | 0 | 471 | 177 | 385 | 218 | 152 | – | – | – | – | 95 | –
13 | CCOC(=O)CN1c2nc(-c3ccccc3)cnc2C(N)=NS1(=O)=O [1-[(2-ethoxycarbonyl)-methyl]-7-phenyl, 4-amino-1-[(ethoxycarbonyl)methyl]-7-phenylpyrazino[2,3-c]-1,2,7-thiadiazine 2,2-dioxide] | – | – | – | – | – | – | – | – | – | – | 72 | –
14 | CCc1nc2c(nc1C)C(NC)=NS(=O)(=O)N2CC [1,7-diethyl-4-(methylamino)-6-methyl, 1,7-diethyl-4-(methylamino)-6-methylpyrazino[2,3-c]-1,2,6-thiadiazine 2,2-dioxide] | – | 424 | 155 | 344 | 156 | 139 | – | – | – | – | 75 | –
15 | Cc1nc2c(nc1C)N(CCN1CCOCC1)S(=O)(=O)N=C2N [1-(2-morpholinoethyl)-6,7-dimethyl, 4-amino-1-(2-morpholinoethyl)-6,7-dimethylpyrazino[2,3-c]-1,2,6-thiadiazine 2,2-dioxide] | 85 | – | – | – | – | – | 102 | 112 | 246 | 108 | – | response vs control in vivo at 25 mg/kg (rats; read-out: Na/K): 220%
16 | Cc1nc2c(nc1C)N(CCN(C(C)C)C(C)C)S(=O)(=O)N=C2N [4-amino-1-[2-(N,N-diisopropylamino)ethyl]-6,7-dimethylpyrazino[2,3-c]-1,2,6-thiadiazine 2,2-dioxide] | 62 | – | – | – | – | – | 156 | 94 | 193 | 84 | – | response vs control in vivo at 25 mg/kg (rats; read-out: Na/K): 205%
17 | CCc1nc2c(nc1CC)N(CC)S(=O)(=O)N=C2N [1,6,7-triethyl, 4-amino-1,6,7-triethylpyrazino[2,3-c]-1,2,6-thiadiazine 2,2-dioxide] | 50 | 216 | 127 | 198 | 156 | 133 | – | – | – | – | – | –
18 | CCN1c2nc(-c3ccccc3)cnc2C(N)=NS1(=O)=O [1-ethyl-7-phenyl, 4-amino-1-ethyl-7-phenylpyrazino[2,3-c]-1,2,6-thiadiazine 2,2-dioxide] | – | 136 | 140 | 131 | 94 | 121 | – | – | – | – | 95 | –
19 | CCc1nc2c(nc1C)C(NN)=NS(=O)(=O)N2CC | – | – | – | – | – | – | – | – | – | – | 72 | –
